Experimental data from patent US10407409B2, “6-(5-hydroxy-1H-pyrazol-1-yl)nicotinamide inhibitors of PHD” (Takeda Pharmaceutical Company Limited, priority 2013, dated 2019).

How the values were obtained:
[1] = system: HIF1a protein in H9c2 rat cardiomyocytes; assay: Cell-based HIF-alpha stabilization assay (inhibition of PHD in cells); settings: 24 hrs compound incubation, HIF1a protein by ELISA; for EC50: Rattus norvegicus, H9c2, 24 h, read-out: Inhibition of PHD in cells (pEC50) (converted)
Protocol: Example B Inhibition of PHD in Cells
PHD Inhibition is Determined Using (Secondary Assay)
Cell-Based HIF-Alpha Stabilization Assay:
H9c2 rat cardiomyocytes (ATCC) were seeded in 96-well tissue culture microplates and cultured for 24 hours prior to addition of compounds (11 point range of serial dilutions) or dimethylsulfoxide vehicle. After 24 hrs of compound incubation, whole cell extracts were prepared by lysing cells in cell extraction buffer containing protease and phosphatase inhibitors (Meso-Scale Discovery). HIF1a protein content was assessed by ELISA (Meso-Scale Discovery) and expressed as a % relative to the maximum response obtained from the positive control, desferrioxamine (Sigma-Aldrich). Compound EC50s were obtained by curve-fitting using XLfit4 MicroSoft Excel curve-fitting software. Compound EC50pos were obtained using XLfit4 to calculate the compound concentration that results in 50% of the desferrioxamine maximum response.

[2] = molecular target: PHD2 enzyme (residues 181-417) (Homo sapiens (Human), UniProt Q9GZT9); assay: Inhibition of PHD enzyme (LC/MS peptide hydroxylation assay); type: biochemical; settings: PHD2 (residues 181-417) 5 nM, 60 min pre-incubation, -log(IC50), IC50 molar
PHD2 enzyme (residues 181-417), sequence (Q9GZT9 181-417): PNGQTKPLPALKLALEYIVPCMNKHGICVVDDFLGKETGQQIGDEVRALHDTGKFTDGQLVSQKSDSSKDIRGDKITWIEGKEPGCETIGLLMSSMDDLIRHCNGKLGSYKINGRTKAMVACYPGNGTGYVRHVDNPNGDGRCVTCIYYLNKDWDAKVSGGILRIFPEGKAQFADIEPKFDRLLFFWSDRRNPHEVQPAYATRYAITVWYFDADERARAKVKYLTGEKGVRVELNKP
Protocol: Example A Inhibition of PHD Enzyme
The IC50 values for the PHD2 enzyme (residues 181-417) were determined by mixing increasing amounts of inhibitor with a fixed amount of enzyme (5 nM, final concentration) and Biotin labeled peptide (Biotin-Asp-Leu-Glu-Met-Leu-Ala-Pro-Tyr-Ile-Pro-Met-Asp-Asp-Asp-Phe-Gln-Leu, 1 uM final concentration) and 2-Oxyglutarate (2 uM final concentration) in 50 mM HEPES, 50 mM KCl, 0.5 mM TCEP, 2 uM FeCl2, 0.1 mg/ml BSA, at pH 7.3. The reaction was conducted by pre-incubating the enzyme in the presence of inhibitor for 60 min at room temperature. The activity of the free enzyme was measured by adding the peptide, the 2-Oxoglutarate (see above for final concentrations), and Ascorbic Acid (1 mM final concentration). The enzymatic activity was quenched after 60 min by adding an excess of a tight binding inhibitor to the assay mixture. The amount of product released was measured by using a LC/MS system (Agilent HPLC with Applied Biosystems API3000 Mass Spectrometer). Data were analyzed using the classical isotherm equation for the determination of IC50 values and are pIC50, i.e., −log(IC50), where IC50 is molar concentration and are reported as pIC50, i.e., −log(IC50), where IC50 is molar concentration.

SMILES | EC50 [1] [nM] | PHD Inhibition (pIC50) [2] | IC50 ([2]; read-out: PHD Inhibition (pIC50) (converted)) [nM] | Inhibition of PHD in cells (pEC50) [1]
COc1cc(-c2cnn(-c3ccc(C(=O)N[C@H]4CC[C@@H](OC)CC4)cn3)c2O)ccn1 [Example 9, 6-(5-hydroxy-4-(2-methoxypyridin-4-yl)-1H-pyrazol-1-yl)-N-((1s,4s)-4-methoxycyclohexyl)nicotinamide] | 525 | 7.5 | – | –
CC[C@H](C)NC(=O)c1ccc(-n2ncc(-c3ccnc(OC)c3)c2O)nc1 [Example 10, (S)—N-(sec-butyl)-6-(5-hydroxy-4-(2-methoxypyridin-4-yl)-1H-pyrazol-1-yl)nicotinamide] | 676 | 7.09 | – | –
CCOCCCNC(=O)c1ccc(-n2ncc(-c3ccnc(OC)c3)c2O)nc1 [Example 12, N-(3-ethoxypropyl)-6-(5-hydroxy-4-(2-methoxypyridin-4-yl)-1H-pyrazol-1-yl)nicotinamide] | 661 | 7.44 | – | –
COc1cc(-c2cnn(-c3ccc(C(=O)NC4CCC4)cn3)c2O)ccn1 [Example 13, N-cyclobutyl-6-(5-hydroxy-4-(2-methoxypyridin-4-yl)-1H-pyrazol-1-yl)nicotinamide] | 417 | 7.15 | – | –
COCC1(CNC(=O)c2ccc(-n3ncc(-c4ccnc(OC)c4)c3O)nc2)CC1 [Example 14, 6-(5-hydroxy-4-(2-methoxypyridin-4-yl)-1H-pyrazol-1-yl)-N-((1-(methoxymethyl)cyclopropyl)methyl)nicotinamide] | 871 | 7.27 | – | –
COc1cc(-c2cnn(-c3ccc(C(=O)NC4CCOCC4)cn3)c2O)ccn1 [Example 15, 6-(5-hydroxy-4-(2-methoxypyridin-4-yl)-1H-pyrazol-1-yl)-N-(tetrahydro-2H-pyran-4-yl)nicotinamide] | 646 | 7.21 | – | –
COc1cc(-c2cnn(-c3ccc(C(=O)N[C@@H](C)C4CCOCC4)cn3)c2O)ccn1 [Example 16, (S)-6-(5-hydroxy-4-(2-methoxypyridin-4-yl)-1H-pyrazol-1-yl)-N-(1-(tetrahydro-2H-pyran-4-yl)ethyl)nicotinamide] | 200 | 7.38 | – | –
COCC(C)(C)NC(=O)c1ccc(-n2ncc(-c3ccnc(OC)c3)c2O)nc1 [Example 17, 6-(5-hydroxy-4-(2-methoxypyridin-4-yl)-1H-pyrazol-1-yl)-N-(1-methoxy-2-methylpropan-2-yl)nicotinamide] | 347 | 7.03 | – | –
CCCN1CCC(NC(=O)c2ccc(-n3ncc(-c4ccnc(OC)c4)c3O)nc2)CC1 [Example 24, 6-(5-hydroxy-4-(2-methoxypyridin-4-yl)-1H-pyrazol-1-yl)-N-(1-propylpiperidin-4-yl)nicotinamide] | 10700 | 7.04 | – | –
COc1cc(-c2cnn(-c3ccc(C(=O)NCCO)cn3)c2O)ccn1 [Example 25, 6-(5-hydroxy-4-(2-methoxypyridin-4-yl)-1H-pyrazol-1-yl)-N-(2-hydroxyethyl)nicotinamide] | 4470 | 7.1 | – | –
COc1cc(-c2cnn(-c3ccc(C(=O)NCCCO)cn3)c2O)ccn1 [Example 26, 6-(5-hydroxy-4-(2-methoxypyridin-4-yl)-1H-pyrazol-1-yl)-N-(3-hydroxypropyl)nicotinamide] | 3630 | – | 97.7 | –
COc1cc(-c2cnn(-c3ccc(C(=O)NCC4CCN(C)CC4)cn3)c2O)ccn1 [Example 30, 6-(5-hydroxy-4-(2-methoxypyridin-4-yl)-1H-pyrazol-1-yl)-N-((1-methylpiperidin-4-yl)methyl)nicotinamide] | 2000 | 7.5 | – | –
COc1cc(-c2cnn(-c3ccc(C(=O)NCCC4CCCN4C)cn3)c2O)ccn1 (stereo not drawn) [Example 31, 6-(5-hydroxy-4-(2-methoxypyridin-4-yl)-1H-pyrazol-1-yl)-N-(2-(1-methylpyrrolidin-2-yl)ethyl)nicotinamide] | – | 7.5 | – | 6.00
COc1cc(-c2cnn(-c3ccc(C(=O)NCCCN4CCOCC4)cn3)c2O)ccn1 [Example 32, 6-(5-hydroxy-4-(2-methoxypyridin-4-yl)-1H-pyrazol-1-yl)-N-(3-morpholinopropyl)nicotinamide] | 813 | 7.8 | – | –
COc1cc(-c2cnn(-c3ccc(C(=O)NC4CCN(C)CC4)cn3)c2O)ccn1 [Example 33, 6-(5-hydroxy-4-(2-methoxypyridin-4-yl)-1H-pyrazol-1-yl)-N-(1-methylpiperidin-4-yl)nicotinamide] | 1170 | 7.4 | – | –
CCNC(=O)c1ccc(-n2ncc(-c3ccnc(OC)c3)c2O)nc1 [Example 34, N-ethyl-6-(5-hydroxy-4-(2-methoxypyridin-4-yl)-1H-pyrazol-1-yl)nicotinamide] | 513 | 8 | – | –
COc1cc(-c2cnn(-c3ccc(C(=O)NCCCn4ccnc4)cn3)c2O)ccn1 [Example 35, N-(3-(1H-imidazol-1-yl)propyl)-6-(5-hydroxy-4-(2-methoxypyridin-4-yl)-1H-pyrazol-1-yl)nicotinamide] | – | 7.8 | – | 5.50
COc1cc(-c2cnn(-c3ccc(C(=O)NCC4CCN(C)C4)cn3)c2O)ccn1 (stereo not drawn) [Example 36, 6-(5-hydroxy-4-(2-methoxypyridin-4-yl)-1H-pyrazol-1-yl)-N-((1-methylpyrrolidin-3-yl)methyl)nicotinamide] | 1480 | 7.4 | – | –
COc1cc(-c2cnn(-c3ccc(C(=O)NCCCN4CCCCC4)cn3)c2O)ccn1 [Example 38, 6-(5-hydroxy-4-(2-methoxypyridin-4-yl)-1H-pyrazol-1-yl)-N-(3-(piperidin-1-yl)propyl)nicotinamide] | – | 7.5 | – | 6.02
COc1cc(-c2cnn(-c3ccc(C(=O)NCCCN4CCCC4)cn3)c2O)ccn1 [Example 39, 6-(5-hydroxy-4-(2-methoxypyridin-4-yl)-1H-pyrazol-1-yl)-N-(3-(pyrrolidin-1-yl)propyl)nicotinamide] | – | 7.3 | – | 5.58
CNC(=O)c1ccc(-n2ncc(-c3ccnc(OC)c3)c2O)nc1 [Example 40, 6-(5-hydroxy-4-(2-methoxypyridin-4-yl)-1H-pyrazol-1-yl)-N-methylnicotinamide] | 977 | 7.9 | – | –
COc1cc(-c2cnn(-c3ccc(C(=O)NC4CCN(C5CC5)CC4)cn3)c2O)ccn1 [Example 41, N-(1-cyclopropylpiperidin-4-yl)-6-(5-hydroxy-4-(2-methoxypyridin-4-yl)-1H-pyrazol-1-yl)nicotinamide] | 550 | 8 | – | –
CNCCCNC(=O)c1ccc(-n2ncc(-c3ccnc(OC)c3)c2O)nc1 [Example 42, 6-(5-hydroxy-4-(2-methoxypyridin-4-yl)-1H-pyrazol-1-yl)-N-(3-(methylamino)propyl)nicotinamide] | 3390 | 7.5 | – | –
COc1cc(-c2cnn(-c3ccc(C(=O)NCCCn4cccn4)cn3)c2O)ccn1 [Example 43, N-(3-(1H-pyrazol-1-yl)propyl)-6-(5-hydroxy-4-(2-methoxypyridin-4-yl)-1H-pyrazol-1-yl)nicotinamide] | 347 | 8.2 | – | –
